Data taken from patent US11723897B2, “Fatty acids as anti-inflammatory agents” (University of Pittsburgh—Of the Commonwealth System of …, priority 2009, dated 2023).
“Also recorded” adds a separate entry of the source.

Assays:
PPARγ = target: T1, PPARγ (Homo sapiens, UniProt P37231); test: PPARγ beta-lactamase reporter assay; type: cell-based; details: concentrations 0.5-10,000 nM; read-out: PPARγ activation EC50
T1 sequence (P37231 1-505): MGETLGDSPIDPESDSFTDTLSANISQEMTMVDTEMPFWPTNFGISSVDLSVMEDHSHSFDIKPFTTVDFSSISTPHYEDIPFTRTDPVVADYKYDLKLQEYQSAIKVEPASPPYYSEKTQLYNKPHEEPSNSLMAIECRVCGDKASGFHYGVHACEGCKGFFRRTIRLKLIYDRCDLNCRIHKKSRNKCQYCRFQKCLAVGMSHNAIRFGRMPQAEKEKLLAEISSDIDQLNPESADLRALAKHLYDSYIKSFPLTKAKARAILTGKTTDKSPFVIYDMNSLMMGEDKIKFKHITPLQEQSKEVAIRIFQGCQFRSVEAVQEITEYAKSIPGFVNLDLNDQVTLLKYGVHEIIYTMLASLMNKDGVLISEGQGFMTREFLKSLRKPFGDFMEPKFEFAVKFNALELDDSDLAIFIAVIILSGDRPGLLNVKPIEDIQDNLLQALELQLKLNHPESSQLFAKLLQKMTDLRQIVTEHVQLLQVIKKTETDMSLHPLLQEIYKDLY
Protocol: (§1) FIG. 11a-11e illustrates modulation of anti-oxidant and inflammatory responses by 17-oxoDHA and 17-oxoDPA. RAW264.7 cells were treated with increasing concentration of 17-oxoDHA and 17-oxoDPA. (a) Cells were harvested 1 h after treatment and Nrf2 levels were quantified in nuclear extracts. (b) Cells were harvested 18 h after treatment and HO-1 and Nqo1 (upper band) levels were measured by western blot. (c, d) RAW264.7 cells were treated with increasing concentration of 17-oxoDHA and 17-oxoDPA for 6 h and Kdo2+IFNγ were added. Samples were collected at 12 h. IL-6, MCP-1 and IL-10 levels were measured in the cell media by Quantikine ELISA Kit (R&D Systems) and normalized by the total protein content (c); Nitrite levels were measured in the cell media and normalized by the total protein content and iNOS and Cox-2 levels were measured in total cell lysates (d); (e) PPARγ beta-lactamase reporter assays were performed for Rosiglitazone, 17-OxoDPA, 17-OxoDHA, 15d-PGJ2, 17-hydroxyDHA, DPA, and DHA with concentrations ranging from 0.5-10,000 nM.
The observation that oxo-fatty acids, such as 15d-PGJ2^30, 5-oxoEPA, 6-oxoOTE, and the synthetic 4-oxoDHA^31, covalently bind and activate the peroxisome proliferator-activated receptor γ (PPARγ), prompted the present inventors to test the ability of 17-oxoDPA, and 17-oxoDHA to activate PPARγ. […]

[1] = system: Nrf2-dependent anti-oxidant response pathway; test: Nrf2 nuclear accumulation and HO-1/Nqo1 expression (western blot) in RAW264.7 cells; type: cell-based, murine; details: for Nrf2 nuclear accumulation: nuclear extracts, 1 h after treatment; for Expression of HO-1 and Nqo1: western blot, 18 h after treatment
RAW264.7 cells [2] = test: Cytokine levels (IL-6, MCP-1, IL-10) in Kdo2+IFNγ-activated RAW264.7 cells; type: cell-based, murine
[3] = system: inducible nitric oxide synthase (iNOS); test: Nitrite, iNOS and Cox-2 levels in Kdo2+IFNγ-activated RAW264.7 cells; type: cell-based, murine; details: for iNOS induction and accumulation of nitrite in the cell media: RAW264.7
Protocol: as §1
For activation experiments RAW 264.7 cells were seeded, incubated overnight, and treated at approximately 80% confluence with the indicated compounds 47. Non-activated controls were treated with vehicle alone. During activation, cells were maintained in an activation medium (SMEM) of Minimum Essential Medium Eagle (Cellgro, 17-305)+2% FBS supplemented with L-glutamine (584 mg/L), Na-pyruvate (110 mg/L) and Hepes (3.57 g/L, pH 7.4). For inhibition studies, inhibitors were added to the medium at the time of activation and MTT assays were used to confirm cell viability. Cells were harvested 20 h post activation (unless otherwise indicated) in 50 mM phosphate buffer (pH 7.4) and snap frozen in liquid N2. THP-1 cells were differentiated with PMA (86 nM) for 16 h, activated with IFNγ (200 U/ml) and Kdo2 lipid A (0.5 μg/ml) in RPMI+2% FBS and harvested 40 h after differentiation. For treatment with EFADs alone, 17-oxoDHA and 17-oxoDPA were added to cell culture media at the indicated concentrations and for the indicated time period. For treatment with EFADs coupled with pro-inflammatory stimulation, addition of 17-oxoDHA and 17-oxoDPA was followed by addition of Kdo2 and IFNγ at 6 h.
Protein concentrations of samples were measured by BCA assay (Pierce). The following primary antibodies were used: Nrf2 (Santa Cruz, sc-722), HO-1 (Assay Design, SPA-896), Nqo1 (Abcam, ab34173), Cox-2 (Santa Cruz, sc-1745), iNOS (BD Transduction Lab, 610332), Lamin B1 (Abcam, ab16048). Actin (detected by Sigma A2066) was used as loading control. […]
Total nitrite and nitrate concentration was measured in cell culture media by Griess reaction using the Nitrate/Nitrite Colorimetric Assay Kit (Cayman Chemical).

rabbit GAPDH = rabbit GAPDH (Oryctolagus cuniculus, UniProt P46406); test: In vitro reaction of GAPDH with EFAD (mass spectrometry); type: binding; details: Cys244, Cys149, His163, His328
rabbit GAPDH, sequence (P46406 whole entry): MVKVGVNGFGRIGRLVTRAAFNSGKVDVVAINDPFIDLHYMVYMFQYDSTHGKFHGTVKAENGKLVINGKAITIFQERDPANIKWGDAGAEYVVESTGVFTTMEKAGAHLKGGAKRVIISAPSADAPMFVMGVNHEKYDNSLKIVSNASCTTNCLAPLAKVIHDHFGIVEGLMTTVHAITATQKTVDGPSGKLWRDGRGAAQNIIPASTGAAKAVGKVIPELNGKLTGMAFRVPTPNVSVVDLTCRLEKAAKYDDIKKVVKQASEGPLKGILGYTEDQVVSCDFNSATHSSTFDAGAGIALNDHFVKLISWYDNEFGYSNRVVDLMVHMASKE
Protocol: FIG. 21a-21h illustrates the mass spectrometric analysis of an in vitro reaction of GAPDH with EFAD-2. Four residues were detected and confined as being targets for EfAD-2 in treated rabbit GAPDH. The peptides were alkylated as Cys244 (a), His163 (b), Cys149 (c) and His328 (d). Upper panels show EFAD-2 modified peptides and lower panels show spectra from corresponding native peptide.
To more specifically test the binding of EFADs to nucleophilic residues in proteins, we tested whether GAPDH was alkylated by EFADs. This enzyme is a well-characterized target for electrophiles and becomes easily inactivated by nitrosylation, oxidation or nucleophilic addition.

[4] = system: EFAD formation in RAW264.7 cells; test: Inhibitor study: EFAD formation in RAW264.7 cells activated with Kdo2 and IFNγ; type: cell-based, murine
Ovine placental COX-2 = target: T2, Ovine placental COX-2 (Ovis aries, UniProt P79208); test: In vitro COX-2 reaction with DPA ± ASA; type: biochemical; details: purified ovine COX-2 + DPA 10 μM, 2 mM ASA
T2 construct: Ovine placental COX-2 (Cayman 60120) was also from Cayman Chemicals; purchased Cayman Chemicals 60120; host or cells: ovine placenta (tissue-derived, from the word 'placental')
T2 sequence (P79208 17-603): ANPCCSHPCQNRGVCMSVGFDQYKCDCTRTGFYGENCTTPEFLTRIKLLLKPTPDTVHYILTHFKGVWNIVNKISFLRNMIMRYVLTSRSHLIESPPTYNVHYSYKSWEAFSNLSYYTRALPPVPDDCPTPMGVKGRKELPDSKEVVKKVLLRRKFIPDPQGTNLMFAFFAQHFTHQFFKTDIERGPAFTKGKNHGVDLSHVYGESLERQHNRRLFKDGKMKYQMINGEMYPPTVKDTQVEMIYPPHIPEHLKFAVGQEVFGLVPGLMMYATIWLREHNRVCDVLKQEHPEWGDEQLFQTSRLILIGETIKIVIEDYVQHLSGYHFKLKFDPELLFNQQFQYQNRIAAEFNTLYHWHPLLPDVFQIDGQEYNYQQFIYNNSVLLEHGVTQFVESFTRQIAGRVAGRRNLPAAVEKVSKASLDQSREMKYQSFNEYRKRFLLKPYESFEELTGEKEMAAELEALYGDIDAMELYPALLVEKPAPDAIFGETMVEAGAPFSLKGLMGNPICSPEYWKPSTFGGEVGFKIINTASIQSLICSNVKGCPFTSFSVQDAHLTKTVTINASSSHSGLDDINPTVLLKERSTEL

[5] = system: bone marrow-derived macrophage (BMDM) cells; test: EFAD formation in activated bone marrow-derived macrophages ± ASA; type: cell-based, C57BL/6 murine; details: activated with Kdo2 and IFNγ, treated with ASA
RAW264.7 cells [6] = test: GS-EFAD adducts in activated RAW264.7 cells; type: cell-based, murine; details: activated RAW264.7 cells + ASA
[7] = RAW264.7 + Kdo2 + IFNγ, 20 h, ↓ decrease, ↑ increase, NE (not defined in patent)

`CCCCCC=CC=C1C(=O)C=C[C@@H]1CC=CCCCC(=O)O` [15d-PGJ2, 15-deoxy-Δ (12,14)-prostaglandin J2] showed an EC50 (PPARγ) of ~25 nM.

With `CC/C=C\CC(=O)C=C/C=C\C/C=C\C/C=C\C/C=C\CCC(=O)O` [17-oxoDHA, 17-oxo-(4Z,7Z,10Z,13Z,15A,19Z)-docosa-4,7,10,13,15,19-hexanoic acid] the Nrf2 nuclear accumulation [1] was “promoted dose-dependent; also recorded: promoting nuclear accumulation of Nrf2”, the “Expression of HO-1 and Nqo1” value [1] was “promoted dose-dependent; also recorded: promoting” and the “IFNγ and LPS-induced cytokine production” value (RAW264.7 cells [2]) was “inhibited IFNγ and LPS-induced cytokine production in a dose-dependent manner”. The “Reduction of nitrite production” value ([3]; 20 μM) was ~70%, the “iNOS induction and accumulation of nitrite in the cell media” value [3] was “dose-dependent inhibition” and the “Adduct formation with GAPDH residues” value (rabbit GAPDH) was “covalently bind Cys and His residues”.

`CC/C=C\CC(=O)C=C/C=C\C/C=C\C/C=C\CCCCCC(=O)O` [17-oxoDPA, 17-oxo-(7Z,10Z,13Z,15A,19Z)-docosa-7,10,13,15,19-pentanoic acid] was tested, and the Nrf2 nuclear accumulation [1] was “promoted dose-dependent; also recorded: promoting nuclear accumulation of Nrf2”, the “Expression of HO-1 and Nqo1” value [1] was “promoted dose-dependent; also recorded: promoting” and the “IFNγ and LPS-induced cytokine production” value (RAW264.7 cells [2]) was “inhibited IFNγ and LPS-induced cytokine production in a dose-dependent manner”. For the same compound, the “Reduction of nitrite production” value ([3]; 25 μM) was ~70%, the “iNOS induction and accumulation of nitrite in the cell media” value [3] was “dose-dependent inhibition” and the “Adduct formation with GAPDH residues” value (rabbit GAPDH) was “covalently bind Cys and His residues”.

For `CC(=O)Oc1ccccc1C(=O)O` [ASA, acetyl salicylic acid], the “Increase of EFAD formation” value ([4]; ASA 200 μM, all EFADs except EFAD-4 and EFAD-6) was “about 2.5 fold”, the “Effect of inhibitor on EFAD-1 formation” value [4, 7] was “↑” and the “Effect of inhibitor on EFAD-2 formation” value [4, 7] was “↑”. For the same compound, the “Effect of inhibitor on EFAD-3 formation” value [4, 7] was “↑”, the “Effect of inhibitor on EFAD-4 formation” value [4, 7] was “↓” and the “Effect of inhibitor on EFAD-5 formation” value [4, 7] was “↑”. The “Effect of inhibitor on EFAD-6 formation” value [4, 7] was “↓”, the “Formation of OH-DPA by COX-2” value (Ovine placental COX-2) was “increased the rate and extent of formation” and the “Extent of EFAD formation in BMDM” value [5] was “increased about two to three fold”. For the same compound, the “Formation of GS-adducts” value (RAW264.7 cells [6]) was “enhanced the formation of GS-adducts”.
